The results in this text go back to EP4745134A1 (Jiangsu Yahong Meditech Co., Ltd., priority 2023, dated 2025).

In experiment [1] the test system is HCT116 MTAP KO cells. As to the kind of experiment: Inhibitory activity against cell proliferation (CellTiter Glo, 6 days), HCT116 MTAP KO. The note with it: for IC50: HCT116 MTAP KO cells, 6 days, CellTiter Glo, read-out: HCT116 MTAP KO IC50; for Selectivity HCT 116-WT/ HCT116 MTAP KO: ratio of IC50 HCT116-WT / HCT116 MTAP KO. The experiment is classed as cell-based. The protocol:
(§1) HCT116-WT (ATCC, CCL-247) and HCT116 MTAP KO (Nanjing Cobioer, CBP75002) cells were seeded into white low-transparency sterile 96-well cell culture plates at a density of 250 cells per well respectively, and the culture medium was McCoy's 5A Medium+10% FBS. The plates were placed under the condition of 37°C and 5% CO2 to be cultured overnight. The cells were treated with 4-fold serially diluted compounds of 8 concentration points starting at an initial concentration of 10000 nM, and the last two columns were used as control wells to which only DMSO was added. The drug-treated cells were further cultured for 6 days. On day 7, CellTiter Glo® reagent was added at 50 uL per well, and after reaction under shaking for 10 minutes at room temperature, the chemiluminescence signals were detected for the well plates through the chemiluminescence detection method using a BIOTEK H1 multifunctional microplate-reader. The IC50 values for inhibition of the compounds on cell viability were calculated in X1fit 5.0 software. Table 2. IC50 values for inhibition of the compounds on HCT116 MTAP KO/WT cell growth
Background: In ATP-based viability assays light output follows the ATP content of the culture.

Experiment [2] has as its system HCT116-WT cells. The experiment can be described thus: Inhibitory activity against cell proliferation (CellTiter Glo, 6 days), HCT116-WT. It is filed as cell-based. The settings on record: HCT116-WT cells, 6 days, CellTiter Glo, read-out: HCT116-WT IC50. The protocol: as §1

Each structure is given as a SMILES string. Like-named read-outs stand apart in the source and are kept apart here.

Regarding `CN(c1ncccn1)N(Cc1ccc(C(F)(F)F)cn1)C(=O)c1ccc2nc(N)c(Cl)cc2c1` [Example 105, 2-amino-3-chloro-N'-methyl-N'-(pyrimidin-2-yl)-N-((5-(trifluoromethyl)pyridin-2-yl)methyl)quinoline-6-carbohydrazide], the IC50 (commonly the concentration that gives 50% inhibition) was 202 nM in experiment [1] (Homo sapiens, HCT-116, 144 h) and 3950 nM in experiment [2] (144 h). The “Selectivity HCT 116-WT/ HCT116 MTAP KO” value in experiment [1] is 19.56.

In the case of `Cc1cc2nc(N)c3cnn(C)c3c2cc1C(=O)N1CCCN1c1ncc(C2CCN(C)CC2)cc1F` [Example 485, (4-amino-1,7-dimethyl-1H-pyrazolo[4,3-c]quinolin-8-yl)(2-(3-fluoro-5-(1-methylpiperid-4-yl)pyridin-2-yl)pyrazolidin-1-yl)methanone], the IC50 came to 415 nM in experiment [1] (Homo sapiens, HCT-116, 144 h) and 4830 nM in experiment [2] (144 h). Besides, the “Selectivity HCT 116-WT/ HCT116 MTAP KO” value in experiment [1] amounted to 11.64.

On to `Cc1cc2cc(C(=O)N(Cc3ccc(-c4cccs4)cn3)N(C)c3ncccn3)ccc2nc1N` [Example 214, 2-amino-N',3-dimethyl-N'-(pyrimidin-2-yl)-N-((5-(thien-2-yl)pyridin-2-yl)methyl) quinoline-6-carbohydrazide], for which the IC50 in experiment [1] (Homo sapiens, HCT-116, 144 h) was 29 nM; in experiment [2] (144 h), 694 nM. Also, in experiment [1], the “Selectivity HCT 116-WT/ HCT116 MTAP KO” value was 23.93.

For `Cc1cc2cc(C(=O)N(Cc3ccc(-c4cc[nH]c(=O)c4)cn3)N(C)c3ncccn3)ccc2nc1N` [Example 138, 2-amino-N',3-dimethyl-N-((2'-oxo-1',2'-dihydro-[3,4'-bipyridine]-6-yl)methyl)-N'-(pyrimidin-2-yl)quinoline-6-carbohydrazide], the IC50 in experiment [1] (Homo sapiens, HCT-116, 144 h) stood at 290 nM; in experiment [2] (144 h), 3420 nM. Further, the “Selectivity HCT 116-WT/ HCT116 MTAP KO” value in experiment [1] came out at 11.79.

As for `Cc1csc(-c2ccc(CN(C(=O)c3ccc4nc(N)c(C)cc4c3)N(C)c3ncccn3)nc2)c1` [Example 146, 2-amino-N',3-dimethyl-N-((5-(4-methylthien-2-yl)pyridin-2-yl)methyl)-N'-(pyrimidin-2-yl)quinoline-6-carbohydrazide], the IC50 in experiment [1] (Homo sapiens, HCT-116, 144 h) came to 75 nM; in experiment [2] (144 h), 1190 nM. Moreover, the “Selectivity HCT 116-WT/ HCT116 MTAP KO” value in experiment [1] amounted to 15.85.

Regarding `CC1CN(C(=O)c2cc3c(cc2F)nc(N)c2cnn(C)c23)N(c2ncccc2F)C1` (single isomer, unassigned) [Example 467], the IC50 was 94 nM in experiment [1] (Homo sapiens, HCT-116, 144 h) and 3040 nM in experiment [2] (144 h). The “Selectivity HCT 116-WT/ HCT116 MTAP KO” value in experiment [1] was determined as 32.33.

As for `Cc1cc2cc(C(=O)N(Cc3ccc(-c4cnn(C(F)F)c4)cn3)N(C)c3ncccn3)ccc2nc1N` [Example 213, 2-amino-N-((5-(1-(difluoromethyl)-1H-pyrazol-4-yl)pyridin-2-yl)methyl)-N',3-di methyl-N'-(pyrimidin-2-yl)quinoline-6-c arbohydrazide], the IC50 amounted to 39 nM in experiment [1] and 863 nM in experiment [2]. Moreover, in experiment [1], the “Selectivity HCT 116-WT/ HCT116 MTAP KO” value is 22.13.

For the compound `Cc1cc2cc(C(=O)N(Cc3ccc(-c4cn(C)cn4)cn3)N(C)c3ncccn3)ccc2nc1N` [Example 194, 2-amino-N',3-dimethyl-N-((5-(1-methyl-1H-imidazol-4-yl)pyridin-2-yl)methyl)-N '-(pyrimidin-2-yl)quinoline-6-carbohydrazide], the IC50 in experiment [1] (Homo sapiens, HCT-116, 144 h) came out at 257 nM; in experiment [2] (144 h), 4230 nM. In addition, the “Selectivity HCT 116-WT/ HCT116 MTAP KO” value in experiment [1] stood at 16.46.

Turning to `Cc1cc2cc(C(=O)N(Cc3ccc(C(C)(C)F)cn3)N(C)c3ncccn3)ccc2nc1N` [Example 288, 2-amino-N-((5-(2-fluoroprop-2-yl)pyridin-2-yl)methyl)-N',3-dimethyl-N'-(pyrimidin-2-yl)quinoline-6-carbohydrazide], the IC50 in experiment [1] (Homo sapiens, HCT-116, 144 h) was 66 nM; in experiment [2] (144 h), 1910 nM. For the same compound, the “Selectivity HCT 116-WT/ HCT116 MTAP KO” value in experiment [1] is 28.91.

Consider `Cc1cc2cc(C(=O)N(Cc3ccc(-c4ccc(N(C)C5CCC5)nc4)cn3)N(C)c3ncccn3)ccc2nc1N` [Compound 261, 2-amino-N-((6'-(cyclobutyl(methyl)amino)-[3,3'-bipyridin]-6-yl)methyl)-N',3-dim ethyl-N'-(pyrimidin-2-yl)quinoline-6-carb ohydrazide], for which the IC50 in experiment [1] (Homo sapiens, HCT-116, 144 h) turned out to be 40 nM; in experiment [2] (144 h), 684 nM. Further, the “Selectivity HCT 116-WT/ HCT116 MTAP KO” value in experiment [1] amounted to 17.10.

Turning to `Cc1cc2cc(C(=O)N(Cc3ccc(-c4cnn(C)n4)cn3)N(C)c3ncccn3)ccc2nc1N` [Example 228, 2-amino-N',3-dimethyl-N-((5-(2-methyl-2H-1,2,3-triazol-4-yl)pyridin-2-yl)methyl)-N'-(pyrimidin-2-yl)quinoline-6-carbohy drazide], the IC50 in experiment [1] (Homo sapiens, HCT-116, 144 h) amounted to 51 nM; in experiment [2] (144 h) it was 1320 nM. In experiment [1], the “Selectivity HCT 116-WT/ HCT116 MTAP KO” value was determined as 25.92.

On to `Cc1cc2cc(C(=O)N(Cc3ccc(-c4nccs4)cn3)N(C)c3ncccn3)ccc2nc1N` [Example 234, 2-amino-N',3-dimethyl-N'-(pyrimidin-2-yl)-N-((5-(thiazol-2-yl)pyridin-2-yl)methyl)quinoline-6-carbohydrazide], for which the IC50 came to 20 nM in experiment [1] (Homo sapiens, HCT-116, 144 h) and 750 nM in experiment [2] (144 h). In addition, the “Selectivity HCT 116-WT/ HCT116 MTAP KO” value in experiment [1] is listed as 37.50.

As to `Cc1cc2cc(C(=O)N(Cc3ccc(-c4cnc5nn(C)cc5c4)cn3)N(C)c3ncccn3)ccc2nc1N` [Example 150, 2-amino-N',3-dimethyl-N-((5-(2-methyl-2H-pyrazolo[3,4-b]pyridin-5-yl)pyridin-2-yl)methyl)-N'-(pyrimidin-2-yl)quinoline-6-carbohydrazide], the IC50 amounted to 29 nM in experiment [1] (Homo sapiens, HCT-116, 144 h) and 708 nM in experiment [2] (144 h). Further, the “Selectivity HCT 116-WT/ HCT116 MTAP KO” value in experiment [1] was 24.41.

Regarding `Cc1cc2nc(N)c3cnn(C)c3c2cc1C(=O)N1CCCN1c1ncc(-c2cnn(C)c2)cc1F` [Example 471, (4-amino-1,7-dimethyl-1H-pyrazolo[4,3-c]quinolin-8-yl)(2-(3-fluoro-5-(1-methyl-1H-pyrazol-4-yl)pyridin-2-yl)pyrazolidin-1-yl)methanone], the IC50 in experiment [1] (Homo sapiens, HCT-116, 144 h) was found to be 97 nM; in experiment [2] (144 h), 5860 nM. For the same compound, the “Selectivity HCT 116-WT/ HCT116 MTAP KO” value in experiment [1] is listed as 60.37.

Regarding `CC1OCc2c1c(N)nc1ccc(C(=O)N(Cc3ccc(C(F)(F)F)cn3)N(C)c3ncccn3)cc21` (stereo not drawn) [Example 70, 4-amino-N',3-dimethyl-N'-(pyrimidin-2-yl)-N-((5-(trifluoromethyl)pyridin-2-yl)methyl)-1,3-dihydrofuro[3,4-c]quinoline-8-carbohydrazide], the IC50 was found to be 21 nM in experiment [1] (Homo sapiens, HCT-116, 144 h) and 222 nM in experiment [2] (144 h). In addition, the “Selectivity HCT 116-WT/ HCT116 MTAP KO” value in experiment [1] was 10.57.

With `Cc1cc2cc(C(=O)N(Cc3ccc(-c4ccn(C)c(=O)c4)cn3)N(C)c3ncccn3)ccc2nc1N` [Example 209, 2-amino-N',3-dimethyl-N-((1'-methyl-2'-oxo-1',2'-dihydro-[3,4'-bipyridine]-6-yl)methyl)-N'-(pyrimidin-2-yl)quinoline-6-car bohydrazide], the IC50 came to 26 nM in experiment [1] (Homo sapiens, HCT-116, 144 h) and 716 nM in experiment [2] (144 h). The “Selectivity HCT 116-WT/ HCT116 MTAP KO” value in experiment [1] came out at 27.54.

With `Cc1cc2nc(N)c3cnn(C)c3c2cc1C(=O)N1CCCN1c1ncc(C2=CCN(C)CC2)cc1F` [Example 470, (4-amino-1,7-dimethyl-1H-pyrazolo[4,3-c]quinolin-8-yl)(2-(5-fluoro-1'-methyl-1', 2',3',6'-tetrahydro-[3,4'-bipyridine]-6-yl)pyrazolidin-1-yl)methanone], the IC50 in experiment [1] (Homo sapiens, HCT-116, 144 h) was 94 nM; in experiment [2] (144 h), 3040 nM. For the same compound, the “Selectivity HCT 116-WT/ HCT116 MTAP KO” value in experiment [1] is reported as 32.33.

Turning to `CCN(CC)c1ccc(-c2ccc(CN(C(=O)c3ccc4nc(N)c(C)cc4c3)N(C)c3ncccn3)nc2)cn1` [Example 255, 2-amino-N-((6'-(diethylamino)-[3,3'-bipyridin]-6-yl)methyl)-N',3-dimethyl-N'-(pyrimidin-2-yl)quinoline-6-carbohydrazide], the IC50 was determined as 81 nM in experiment [1] (Homo sapiens, HCT-116, 144 h) and 978 nM in experiment [2] (144 h). For the same compound, the “Selectivity HCT 116-WT/ HCT116 MTAP KO” value in experiment [1] is given as 12.07.

Turning to `Cc1cc2nc(N)c3cnn(C)c3c2cc1C(=O)N1CCCN1c1ncc(-c2cnc3c(cnn3C)c2)cc1F` [Example 482, (4-amino-1,7-dimethyl-1H-pyrazolo[4,3-c]quinolin-8-yl)(2-(3-fluoro-5-(1-methyl-1H-pyrazolo[3,4-b]pyridin-5-yl)pyridin-2-yl)pyrazolidin-1-yl)methanone], the IC50 in experiment [1] (Homo sapiens, HCT-116, 144 h) turned out to be 60 nM; in experiment [2] (144 h) it was 5370 nM. Also, the “Selectivity HCT 116-WT/ HCT116 MTAP KO” value in experiment [1] came out at 89.47.

Turning to `Cc1cc2cc(C(=O)N(Cc3ccc4sc(C5CCN(C)CC5)nc4c3)N(C)c3ncccn3)ccc2nc1N` [Example 219], the IC50 in experiment [1] (Homo sapiens, HCT-116, 144 h) came out at 216 nM; in experiment [2] (144 h), 3140 nM. In addition, in experiment [1], the “Selectivity HCT 116-WT/ HCT116 MTAP KO” value amounted to 14.53.

On to `COC1CN(C(=O)c2cc3c(cc2C)nc(N)c2cnn(C)c23)N(c2ncc(Br)cc2F)C1` (stereo not drawn) [Example 438, (4-amino-1,7-dimethyl-1H-pyrazolo[4,3-c]quinolin-8-yl)(2-(5-bromo-3-fluoropyridin-2-yl)-4-methoxypyrazolidin-1-yl)met hanone], for which the IC50 in experiment [1] (Homo sapiens, HCT-116, 144 h) was found to be 40 nM; in experiment [2] (144 h) it was 1510 nM. Besides, the “Selectivity HCT 116-WT/ HCT116 MTAP KO” value in experiment [1] is on record as 37.65.
